According to BindingDB's records for doi:10.1016/j.bmcl.2009.03.043 (Vertex Pharmaceuticals, 2009):

How the values were obtained:
[1] = molecular target: Mitogen-activated protein kinase 10 (Homo sapiens, UniProt P53779); experiment: Inhibition of JNK3 by spectrophotometric coupled enzyme assay
[2] = molecular target: Tyrosine-protein kinase SYK (Homo sapiens) (UniProt P43405); experiment: Inhibition of SYK
[3] = molecular target: 3-phosphoinositide-dependent protein kinase 1 (Homo sapiens) (UniProt O15530); experiment: Inhibition of PDK1

Chain of Mitogen-activated protein kinase 10 (P53779 whole entry): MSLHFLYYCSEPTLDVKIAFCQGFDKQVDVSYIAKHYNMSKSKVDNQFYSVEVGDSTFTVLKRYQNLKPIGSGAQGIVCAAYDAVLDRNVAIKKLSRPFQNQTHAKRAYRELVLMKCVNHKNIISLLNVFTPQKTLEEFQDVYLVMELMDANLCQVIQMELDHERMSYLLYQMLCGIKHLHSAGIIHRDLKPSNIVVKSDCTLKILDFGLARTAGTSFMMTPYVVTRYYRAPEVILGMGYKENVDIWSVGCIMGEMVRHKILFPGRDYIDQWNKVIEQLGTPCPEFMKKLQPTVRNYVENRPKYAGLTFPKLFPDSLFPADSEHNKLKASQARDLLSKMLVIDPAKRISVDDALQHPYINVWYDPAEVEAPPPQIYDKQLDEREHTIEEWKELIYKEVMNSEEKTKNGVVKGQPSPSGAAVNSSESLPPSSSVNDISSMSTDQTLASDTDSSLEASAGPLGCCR

SMILES | Ki [1] | Ki [2] | Ki [3]
Cc1ccc2c(c1)C(N=O)C(=O)N2Cc1ccccc1 (configuration not stated) [1-benzyl-3-(hydroxyimino)-5-methylindolin-2-one] | > 10 µM |  | 
O=NC1C(=O)N(Cc2ccccc2)c2ccccc21 (configuration not stated) [1-benzyl-3-(hydroxyimino)indolin-2-one] | > 10 µM |  | 
O=NC1C(=O)N(Cc2ccccc2)c2ccc(F)cc21 (configuration not stated) [1-benzyl-5-fluoro-3-(hydroxyimino)indolin-2-one] | > 10 µM |  | 
O=NC1C(=O)N(Cc2ccccc2[N+](=O)[O-])c2ccccc21 (configuration not stated) [3-(hydroxyimino)-1-(2-nitrobenzyl)indolin-2-one] | > 10 µM |  | 

The remaining lines, values ahead:

Ki [1] | Ki [2] | Ki [3] | SMILES
> 10 µM |  |  | Cc1cccc(CN2C(=O)C(N=O)c3cc(C)ccc32)c1 (configuration not stated) [3-(hydroxyimino)-5-methyl-1-(3-methylbenzyl)indolin-2-one]
 | > 30 µM | > 30 µM | Cc1ccc2c(c1)N(Cc1cc(F)cc3c1OCOC3)C(=O)C2N=O (configuration not stated) [1-((6-fluoro-4H-benzo[d][1,3]dioxin-8-yl)methyl)-3-(hydroxyimino)-6-methylindolin-2-one]
